Experimental data published in patent publication US10851093B2, “Tyrosine kinase inhibitors” (Rigel Pharmaceuticals, Inc., priority 2018, dated 2020).

Columns and labels:
[1] = target: T1, Axl (Homo sapiens, UniProt P30530); assay: Phospho-AKT HTRF, HUVEC, Axl ABX-L, 8 pt; type: cell-based; conditions: HUVEC cells, pAkt(Ser473) HTRF, Axl ABX-L stimulation
T1 construct: Seed HUVECs (10K cells/well) in EBM-2 complete media; host or cells: HUVEC
T1 sequence (P30530 26-894): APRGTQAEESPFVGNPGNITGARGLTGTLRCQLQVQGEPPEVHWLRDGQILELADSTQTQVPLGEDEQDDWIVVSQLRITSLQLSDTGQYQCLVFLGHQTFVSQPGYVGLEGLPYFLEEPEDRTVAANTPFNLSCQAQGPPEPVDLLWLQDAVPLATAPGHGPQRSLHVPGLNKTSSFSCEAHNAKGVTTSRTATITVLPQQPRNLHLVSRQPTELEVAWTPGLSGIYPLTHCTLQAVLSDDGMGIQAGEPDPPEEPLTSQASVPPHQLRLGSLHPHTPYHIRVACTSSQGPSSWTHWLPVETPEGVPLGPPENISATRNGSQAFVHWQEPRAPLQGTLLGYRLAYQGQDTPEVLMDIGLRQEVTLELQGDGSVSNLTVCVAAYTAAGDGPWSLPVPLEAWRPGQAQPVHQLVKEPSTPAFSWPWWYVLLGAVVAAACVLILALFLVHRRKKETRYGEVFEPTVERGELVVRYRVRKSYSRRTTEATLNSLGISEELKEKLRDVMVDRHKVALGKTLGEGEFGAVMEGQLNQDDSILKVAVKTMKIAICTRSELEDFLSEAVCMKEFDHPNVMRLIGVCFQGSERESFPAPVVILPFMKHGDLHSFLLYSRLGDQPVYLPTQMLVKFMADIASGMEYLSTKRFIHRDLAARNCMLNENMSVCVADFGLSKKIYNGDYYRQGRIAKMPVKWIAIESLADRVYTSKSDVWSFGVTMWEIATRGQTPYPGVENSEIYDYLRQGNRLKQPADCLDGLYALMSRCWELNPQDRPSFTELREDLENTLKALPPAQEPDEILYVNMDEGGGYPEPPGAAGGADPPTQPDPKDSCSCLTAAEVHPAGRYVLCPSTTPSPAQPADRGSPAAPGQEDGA
Protocol: [The source words this procedure for another target and reports this target under the same test.] (§1) Example 13: PAKT HTRF-HUVEC Assay
(§2) Seed HUVECs (10K cells/well) in EBM-2 complete media (EBM-2 basal medium plus EGM-2 BulletKit supplements) overnight at 37° C., 5% CO2 in Costar 96-well white clear-bottom plates. Remove culture media and starve cells for 3-4 hours in 50 μL/well EBM-2 basal medium. Perform serial dilution of compounds in DMSO from 2.5 mM in 4-fold dilutions, and then dilute 1:125 in EBM-2 basal media. Mix 50 μL/well 2× compounds with 50 μL/well HUVECs in duplicate in Costar 96-well white clear-bottom plates. Incubate plates for 1 hour at 37° C., 5% CO2. Cross-link anti-human MerTK antibody to Biotin-SP-conjugated anti-mouse IgG antibody (1:1) to give final concentrations of 5 μg/mL of anti-human MerTK-XL. Stimulate HUVECs with 25 μL/well 5× anti-human MerTK-XL to give final concentrations of 1 ug/mL for 10 minutes at 37° C., 5% CO2. Completely remove media and lyse HUVECs with 40 uL:WELL per well of Cisbio HTRF 1× lysis buffer. Performed pAkt(Ser473) HTRF assay in ProxiPlate-384 Plus, white 384-shallow well microplate according to the vendor protocol and read plates with a SpectralMax Paradigm plate reader. Enter the HTRF values into Athena (Rigel) for curve fitting, EC50 calculation, and database storage.

[2] = target: T2, MerTK (Homo sapiens, UniProt Q12866); assay: Phospho-AKT HTRF, HUVEC, Mer-XL, 8 pt (pAKT HTRF-HUVEC assay, anti-human MerTK-XL stimulation); type: cell-based; conditions: HUVEC cells, pAkt(Ser473) HTRF, anti-human MerTK-XL stimulation 1 ug/mL 10 minutes
T2 construct: Seed HUVECs (10K cells/well) in EBM-2 complete media; host or cells: HUVEC
T2 sequence (Q12866 21-999): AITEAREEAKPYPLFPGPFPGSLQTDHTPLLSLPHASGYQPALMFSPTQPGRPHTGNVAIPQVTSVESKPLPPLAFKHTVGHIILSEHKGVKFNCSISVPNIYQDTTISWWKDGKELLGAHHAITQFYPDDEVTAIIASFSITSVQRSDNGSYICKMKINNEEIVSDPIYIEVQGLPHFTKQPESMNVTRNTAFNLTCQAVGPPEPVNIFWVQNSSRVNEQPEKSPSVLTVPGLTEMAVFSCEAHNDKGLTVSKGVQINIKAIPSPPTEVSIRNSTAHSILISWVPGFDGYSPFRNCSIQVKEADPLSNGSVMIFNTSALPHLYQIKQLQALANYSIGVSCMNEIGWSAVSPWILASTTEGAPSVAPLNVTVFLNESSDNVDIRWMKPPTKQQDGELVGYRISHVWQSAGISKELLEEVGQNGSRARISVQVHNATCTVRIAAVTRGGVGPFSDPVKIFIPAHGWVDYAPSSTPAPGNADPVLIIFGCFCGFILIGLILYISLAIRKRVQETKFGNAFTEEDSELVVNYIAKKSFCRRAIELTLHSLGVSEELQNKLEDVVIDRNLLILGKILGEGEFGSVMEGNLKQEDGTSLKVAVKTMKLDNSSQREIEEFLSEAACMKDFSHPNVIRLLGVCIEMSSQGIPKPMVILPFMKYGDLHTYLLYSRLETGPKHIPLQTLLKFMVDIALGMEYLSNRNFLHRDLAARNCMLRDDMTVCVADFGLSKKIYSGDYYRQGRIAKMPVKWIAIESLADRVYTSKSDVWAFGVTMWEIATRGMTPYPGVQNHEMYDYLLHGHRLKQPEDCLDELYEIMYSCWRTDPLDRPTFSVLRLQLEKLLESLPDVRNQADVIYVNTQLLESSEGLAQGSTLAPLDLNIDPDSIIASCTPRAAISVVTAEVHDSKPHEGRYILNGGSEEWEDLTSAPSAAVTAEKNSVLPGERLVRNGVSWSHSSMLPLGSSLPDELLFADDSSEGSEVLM
Protocol: as §1, §2

Row | SMILES | EC50 [1] | EC50 [2]
1 | COc1cc2c(Oc3ccc(NC(=O)c4nc(-c5ccccc5)c5c(n4)C4CCN5CC4)nc3)ccnc2cc1OCc1ccccc1 [Compound 37, N-(5-((7-(benzyloxy)-6-methoxyquinolin-4-yl)oxy)pyridin-2-yl)-4-phenyl-7,8-dihydro-6H-5,8-ethanopyrido[3,2-d]pyrimidine-2-carboxamide] | 38.4 nM | 63.6 nM
2 | COc1cc2c(Oc3ccc(NC(=O)c4cc(N5CCCCC5)ccn4)nc3)ccnc2cc1OCCCN1CCOCC1 [Compound 13, N-(5-((6-methoxy-7-(3-morpholinopropoxy)quinolin-4-yl)oxy)pyridin-2-yl)-4-(piperidin-1-yl)picolinamide] | 53.8 nM | 20.2 nM
3 | COc1cc2c(Oc3ccc(NC(=O)c4ncc(N5CCCCC5)s4)nc3)ccnc2cc1OCCCN1CCOCC1 [Compound 47, N-(5-((6-methoxy-7-(3-morpholinopropoxy)quinolin-4-yl)oxy)pyridin-2-yl)-5-(piperidin-1-yl)thiazole-2-carboxamide] | 130 nM | 119 nM
4 | COc1cc2c(Oc3ccc(NC(=O)c4cc(C(F)(F)F)ccn4)nc3)ccnc2cc1OCCCN1CCOCC1 [Compound 34, N-(5-((6-Methoxy-7-(3-morpholinopropoxy)quinolin-4-yl)oxy)pyridin-2-yl)-4-(trifluoromethyl)picolinamide] | 327 nM | 183 nM
5 | CCOC1CCN(c2ccnc(C(=O)Nc3ccc(Oc4ccnc5cc(OCCCN6CCOCC6)c(OC)cc45)cn3)c2)CC1 [Compound 15, 4-(4-ethoxypiperidin-1-yl)-N-(5-((6-methoxy-7-(3-morpholinopropoxy)quinolin-4-yl)oxy)pyridin-2-yl)picolinamide] | 257 nM | 204 nM
6 | COc1cc2c(Oc3ccc(NC(=O)c4ncc(Br)s4)nc3)ccnc2cc1OCCCN1CCOCC1 [Compound 44, 5-bromo-N-(5-((6-methoxy-7-(3-morpholinopropoxy)quinolin-4-yl)oxy)pyridin-2-yl)thiazole-2-carboxamide] | 102 nM | 79.9 nM

The remaining lines, values ahead:

Row | EC50 [1] | EC50 [2] | SMILES
7 | 32 nM | 7 nM | COc1cc2c(Oc3ccc(NC(=O)c4cccc(N5CCCC5)n4)nc3)ccnc2cc1OCCCN1CCOCC1 [Compound 26, N-(5-((6-methoxy-7-(3-morpholinopropoxy)quinolin-4-yl)oxy)pyridin-2-yl)-6-(pyrrolidin-1-yl)picolinamide]
8 | 5.8 nM | 9.5 nM | COc1cc2c(Oc3ccc(NC(=O)c4nc(-c5ccccc5)c5c(n4)C4CCN5CC4)cc3F)ccnc2cc1OCCCN1CCOCC1 [Compound 36, N-(3-fluoro-4-((6-methoxy-7-(3-morpholinopropoxy)quinolin-4-yl)oxy)phenyl)-4-phenyl-7,8-dihydro-6H-5,8-ethanopyrido[3,2-d]pyrimidine-2-carboxamide]
9 | 1370 nM | 1640 nM | COc1cc2c(Oc3ccc(NC(=O)c4cc(N5CCC(c6ccccc6)CC5)ccn4)nc3)ccnc2cc1OCCCN1CCOCC1 [Compound 17, N-(5-((6-methoxy-7-(3-morpholinopropoxy)quinolin-4-yl)oxy)pyridin-2-yl)-4-(4-phenylpiperidin-1-yl)picolinamide]
10 | 3 nM | 5 nM | COc1cc2c(Oc3ccc(NC(=O)c4nc(-c5ccccc5)c5c(n4)C4CCN5CC4)nc3)ccnc2cc1OCCCN1CCOCC1 [Compound 35, N-(5-((6-methoxy-7-(3-morpholinopropoxy)quinolin-4-yl)oxy)pyridin-2-yl)-4-phenyl-7,8-dihydro-6H-5,8-ethanopyrido[3,2-d]pyrimidine-2-carboxamide]
11 | 18.2 nM | 10 nM | COc1cc2c(Oc3ccc(NC(=O)c4cc(-c5ccccc5)c5c(n4)C4CCN5CC4)nc3)ccnc2cc1OCCCN1CCOCC1 [Compound 7, N-(5-((6-Methoxy-7-(3-morpholinopropoxy)quinolin-4-yl)oxy)pyridin-2-yl)-8-phenyl-3,4-dihydro-2H-1,4-ethano-1,5-naphthyridine-6-carboxamide, hydrochloric acid]
12 | 50 nM | 47.2 nM | COc1cc2c(Oc3ccc(NC(=O)c4csc(-c5ccccc5)n4)nc3)ccnc2cc1OCCCN1CCOCC1 [Compound 42, N-(5-((6-methoxy-7-(3-morpholinopropoxy)quinolin-4-yl)oxy)pyridin-2-yl)-2-phenylthiazole-4-carboxamide]
